Assay results as given in PMC10178848, “Modulating fast skeletal muscle contraction protects skeletal muscle in animal models of Duchenne muscular dystrophy” (The Journal of Clinical Investigation, 2023).

Assays:
DYRK1B = molecular target: T1, DYRK1B (Homo sapiens, UniProt Q9Y463); assay: KINOMEscan scanEDGE; assay type: binding; conditions: 20 uM
T1 construct: purchased Eurofins DiscoverX (KINOMEscan; SAFETYscan E/IC50 ELECT)

WT and mdx mice = assay: Voluntary wheel running; assay type: in vivo, mouse; conditions: 50 ppm chow
Protocol: Prior to in vivo assessments, mice were dosed PO after a 2-hour fast with 10 mL/Kg suspensions. Grip strength and rotarod assessments were performed masked, 4 hours after dosing using published protocols ([66], [67]). Grip strength was performed with a Columbus Instruments Rodent Force Meter. Forepaw strength represented the average of 5 trials with 30-second rest periods, normalized by BW. Rotarod endurance was performed with a Columbus Instruments RotaMax. Mice were placed on the device drum at 1 rpm, which accelerated 1 rpm every 3 seconds to 12 rpm and a maximal time of 500 seconds. This was repeated 3 times with a 3-minute rest and total time reported. Voluntary wheel running performance was assessed with a customized system. Timestamped RPMs were measured 24 hours per day by infrared sensors, and a custom software calculated distance. Whole-body EBD was visualized after intravenous administration ([35]). EBD in PBS at 10 mg/mL was sterile filtered, and 50 μL/10 g BW was injected via tail vein. After 24 hours, animals were sacrificed, skin was removed and fixed in 4% formalin for 24 hours, and photographed using a Leica/Lumix camera.

PRKCE = molecular target: T2, PRKCE (Homo sapiens, UniProt Q02156); assay: KINOMEscan scanEDGE; assay type: binding; conditions: 20 uM
T2 construct: purchased Eurofins DiscoverX (KINOMEscan; SAFETYscan E/IC50 ELECT)

[1] = Muscle concentration in GRMD dogs; assay type: in vivo, dog; conditions: end of the dosing period
Protocol: We viewed data in mice as encouraging but were interested in testing EDG-5506 in dystrophic golden retriever (GRMD) dogs; their muscle composition and function more closely resemble that of humans ([40]). Older (7 months of age), disease-stable GRMD were dosed in 2-week periods with vehicle, then EDG-5506, followed by a vehicle washout. As fast fiber atrophy has been documented in DMD dogs ([16]), we confirmed sustained fast myosin from biopsies of age-matched WT/GRMD gastrocnemius muscle (Supplemental Figure 6A). EDG-5506 concentration was measured from a muscle biopsy at the end of the dosing period (4,951 ± 217 ng/g muscle). EDG-5506 administration was associated with a more than 50% decrease in CK, returning to pretreatment levels after compound washout (Figure 6A). Physical activity normally increases CK in GRMD ([41]), raising the question of whether EDG-5506 lowered CK via decreasing physical activity. We sought to test the effect of EDG-5506 on habitual activity in the same dogs using an activity monitor ([42]). EDG-5506 improved average daily activity by more than 30% (Figure 6B and Supplemental Figure 6B) with reversible increases in time active and decreases in time resting (Figure 6C). One GRMD used in the biomarker study was too severely progressed to participate in this study.

SERT = molecular target: T3, SERT (Homo sapiens, UniProt P31645); assay: SAFETYscan Transporter; assay type: cell-based; parameters: dose or concentration left out as unconfirmed; conditions: read-out: Max Response (%) (Antagonist)
T3 construct: purchased Eurofins DiscoverX (KINOMEscan; SAFETYscan E/IC50 ELECT)
Protocol: (§1) The specificity of EDG-5506 for fast skeletal myosin over other, unrelated proteins was confirmed using two off-target binding and activity screens. […] A second off-target panel (SAFETYscan E/IC50 ELECT, Eurofins DiscoverX) tested in vitro enzyme activity against 78 proteins, including GPCR, ion channel, kinases, nuclear hormone receptors, and transporters. In all assays, the IC50 of EDG-5506 was more than 10 μM (Supplemental Data File 1).

DAT = molecular target: T4, DAT (Homo sapiens, UniProt Q01959); assay: SAFETYscan Transporter; assay type: cell-based; parameters: dose or concentration left out as unconfirmed; conditions: read-out: Max Response (%) (Antagonist)
T4 construct: purchased Eurofins DiscoverX (KINOMEscan; SAFETYscan E/IC50 ELECT)
Protocol: as §1

NET = molecular target: T5, NET (Homo sapiens, UniProt P23975); assay: SAFETYscan Transporter; assay type: cell-based; parameters: dose or concentration left out as unconfirmed; conditions: read-out: Max Response (%) (Antagonist)
T5 construct: purchased Eurofins DiscoverX (KINOMEscan; SAFETYscan E/IC50 ELECT)
Protocol: as §1

mdx mice = assay: Plasma CK activity in mice; assay type: in vivo, mouse
Protocol: Plasma from mice and dogs were analyzed for CK activity using standard protocols (Pointe Scientific, Thermo Fisher Scientific).

T2 sequence (Q02156 whole entry): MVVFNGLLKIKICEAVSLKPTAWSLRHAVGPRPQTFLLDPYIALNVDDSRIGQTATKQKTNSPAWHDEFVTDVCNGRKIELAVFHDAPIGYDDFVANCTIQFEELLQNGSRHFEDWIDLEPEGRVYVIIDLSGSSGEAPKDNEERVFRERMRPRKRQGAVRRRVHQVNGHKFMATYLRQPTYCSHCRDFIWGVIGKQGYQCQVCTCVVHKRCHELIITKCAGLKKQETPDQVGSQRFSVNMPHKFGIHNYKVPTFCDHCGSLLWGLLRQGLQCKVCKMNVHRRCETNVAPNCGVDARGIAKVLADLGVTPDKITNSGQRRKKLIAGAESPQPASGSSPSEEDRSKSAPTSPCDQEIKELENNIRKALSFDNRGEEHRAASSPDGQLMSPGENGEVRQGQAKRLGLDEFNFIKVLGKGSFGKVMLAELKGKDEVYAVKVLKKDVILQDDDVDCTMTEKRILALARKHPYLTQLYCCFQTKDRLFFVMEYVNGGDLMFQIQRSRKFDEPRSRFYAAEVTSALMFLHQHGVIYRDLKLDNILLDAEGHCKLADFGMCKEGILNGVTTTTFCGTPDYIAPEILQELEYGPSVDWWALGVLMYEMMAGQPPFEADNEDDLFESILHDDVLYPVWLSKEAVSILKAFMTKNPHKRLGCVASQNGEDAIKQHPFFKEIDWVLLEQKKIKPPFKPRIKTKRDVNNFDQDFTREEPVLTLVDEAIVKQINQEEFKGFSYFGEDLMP
T1 sequence (Q9Y463 whole entry): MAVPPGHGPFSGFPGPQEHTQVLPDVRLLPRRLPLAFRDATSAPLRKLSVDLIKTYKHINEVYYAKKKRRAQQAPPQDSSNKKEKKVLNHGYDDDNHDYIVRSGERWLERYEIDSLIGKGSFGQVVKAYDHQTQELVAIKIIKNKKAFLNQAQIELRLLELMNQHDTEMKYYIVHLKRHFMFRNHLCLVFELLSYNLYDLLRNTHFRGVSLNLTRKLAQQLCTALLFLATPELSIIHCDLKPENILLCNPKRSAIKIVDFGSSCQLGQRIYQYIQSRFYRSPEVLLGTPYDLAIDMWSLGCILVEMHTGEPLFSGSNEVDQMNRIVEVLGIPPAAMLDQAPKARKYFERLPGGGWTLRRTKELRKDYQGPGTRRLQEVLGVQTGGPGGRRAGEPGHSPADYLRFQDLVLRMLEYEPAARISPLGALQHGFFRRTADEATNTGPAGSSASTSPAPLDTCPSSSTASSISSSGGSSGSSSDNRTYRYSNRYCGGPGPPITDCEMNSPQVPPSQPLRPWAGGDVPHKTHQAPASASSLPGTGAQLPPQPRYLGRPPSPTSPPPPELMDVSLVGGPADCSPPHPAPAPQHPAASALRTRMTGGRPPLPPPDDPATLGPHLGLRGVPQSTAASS
T5 sequence (P23975 whole entry): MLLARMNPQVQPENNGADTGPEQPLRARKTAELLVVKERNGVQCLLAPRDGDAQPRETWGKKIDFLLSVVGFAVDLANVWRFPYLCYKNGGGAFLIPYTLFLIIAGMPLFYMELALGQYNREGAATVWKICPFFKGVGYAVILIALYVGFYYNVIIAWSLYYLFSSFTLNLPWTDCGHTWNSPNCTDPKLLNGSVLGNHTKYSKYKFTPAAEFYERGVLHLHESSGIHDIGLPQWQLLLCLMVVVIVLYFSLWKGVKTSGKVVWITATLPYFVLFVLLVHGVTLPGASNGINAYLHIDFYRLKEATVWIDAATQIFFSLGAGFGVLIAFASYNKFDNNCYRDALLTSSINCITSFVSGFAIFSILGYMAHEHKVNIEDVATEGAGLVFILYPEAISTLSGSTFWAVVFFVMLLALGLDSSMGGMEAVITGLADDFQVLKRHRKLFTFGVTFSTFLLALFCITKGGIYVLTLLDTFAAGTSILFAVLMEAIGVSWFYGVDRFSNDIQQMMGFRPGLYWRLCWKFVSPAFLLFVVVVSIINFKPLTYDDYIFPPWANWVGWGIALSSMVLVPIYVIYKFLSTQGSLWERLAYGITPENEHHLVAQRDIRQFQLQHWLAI
T4 sequence (Q01959 whole entry): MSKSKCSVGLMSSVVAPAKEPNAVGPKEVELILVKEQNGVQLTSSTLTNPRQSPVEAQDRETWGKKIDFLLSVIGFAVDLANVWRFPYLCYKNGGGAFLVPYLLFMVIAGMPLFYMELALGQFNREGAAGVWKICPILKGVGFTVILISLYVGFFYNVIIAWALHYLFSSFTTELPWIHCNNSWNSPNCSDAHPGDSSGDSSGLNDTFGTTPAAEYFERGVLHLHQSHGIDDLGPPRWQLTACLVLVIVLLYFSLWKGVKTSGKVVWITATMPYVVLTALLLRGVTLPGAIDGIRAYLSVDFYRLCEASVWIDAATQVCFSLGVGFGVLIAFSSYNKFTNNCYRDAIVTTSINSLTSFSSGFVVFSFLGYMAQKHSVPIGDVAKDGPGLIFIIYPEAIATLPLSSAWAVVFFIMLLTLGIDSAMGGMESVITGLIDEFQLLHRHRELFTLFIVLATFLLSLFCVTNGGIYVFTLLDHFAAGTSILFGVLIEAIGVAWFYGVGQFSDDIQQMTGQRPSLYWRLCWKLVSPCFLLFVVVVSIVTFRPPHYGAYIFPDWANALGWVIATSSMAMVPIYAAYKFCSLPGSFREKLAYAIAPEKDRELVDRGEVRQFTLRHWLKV
T3 sequence (P31645 whole entry): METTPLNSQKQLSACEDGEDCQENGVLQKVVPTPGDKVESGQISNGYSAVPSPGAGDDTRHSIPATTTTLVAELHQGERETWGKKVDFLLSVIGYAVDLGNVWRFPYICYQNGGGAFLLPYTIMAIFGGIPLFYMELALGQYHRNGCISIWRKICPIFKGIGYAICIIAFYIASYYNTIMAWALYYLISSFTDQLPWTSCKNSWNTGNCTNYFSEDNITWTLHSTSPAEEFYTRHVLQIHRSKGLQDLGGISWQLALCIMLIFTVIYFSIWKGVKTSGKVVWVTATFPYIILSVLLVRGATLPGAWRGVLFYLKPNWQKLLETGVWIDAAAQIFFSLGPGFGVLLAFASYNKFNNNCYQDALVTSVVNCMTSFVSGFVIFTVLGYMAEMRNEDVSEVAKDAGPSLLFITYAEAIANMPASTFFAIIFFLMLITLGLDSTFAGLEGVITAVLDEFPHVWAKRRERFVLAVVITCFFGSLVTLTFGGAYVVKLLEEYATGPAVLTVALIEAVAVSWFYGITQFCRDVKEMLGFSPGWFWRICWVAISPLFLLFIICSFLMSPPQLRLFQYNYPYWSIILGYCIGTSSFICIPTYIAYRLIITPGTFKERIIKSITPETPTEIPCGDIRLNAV

## O=c1ccc(-c2cnc(OCC(F)(F)F)nc2)nn1Cc1cncc(F)c1 [EDG-5506]
DYRK1B
  binding, % of control: 100 % of control
WT and mdx mice
  wheel running: no effect
PRKCE
  binding, % of control: 81 % of control
[1]
  EDG-5506 concentration in muscle biopsy: 4,951 ± 217 ng/g muscle
SERT
  Emax: 6.08%
DAT
  Emax: 0%
NET
  Emax: 4.79%
Mdx mice; 1 hour after in situ injury
  plasma CK activity after in situ injury: lowered plasma CK activity
Mdx mice; 1 hour after rotarod or grip strength tests
  postexercise plasma CK: significantly lower
